Results published in patent US20070166547A1, “Use of a layer consisting of hydrophobic linear, or two-dimensional polycyclic aromatics as a barrier layer or an encapsulation and electric components constructed with a layer of this type and comprising organic polymers” (priority 2003, published 2007).

Experiments:
[1] = test system: plasma hemostasis; experiment: Prothrombin time after intravenous administration; assay type: in vivo, rabbit
Procedure: (§1) The investigations were performed on 72 rabbits of the “Chinchilla” breed with a mass of 2.5±0.3 kg, who were administered which solutions of compounds 2, 15, 21, 37 in doses of 15, 30 and 60 mg/kg intravenously. The experiments included the thrombin-test (series No. 7300) and the coagulability-test (series No. 5000) purchased from the scientific-and-production association (SPA) “Renam”, thromboplastin (series No. 240600) and calcium chloride purchased from the SPA “MedioLab”
(§2) The static parameters of the blood and plasma coagulation (partial activated thromboplastin time, thrombin time, maximum coagulation activity (test for auto coagulation) were determined using the Behnk Electronic coagulometer (Germany). The operating principle of this instrument is based on the fact that the formed blood clot breaks the contacts of the pulse counter in the flask-pin circuit, said pin permanently oscillating in a vertical plane. The moment of formation of the clot is registered by stopping the stop watch hand.
(§3) The measurements were effected at a constant temperature of 37° C. maintained by a temperature control unit.
The method of its determination is based on estimation of the coagulation of citrate or oxalic blood plasma, when it is mixed with thromboplastin and a calcium chloride solution. Since under these conditions the time of formation of the clot depends on the content of II, VII, IX and X factors in the investigated plasma sample, now the test is called “thromboplastin time by Quick” or “activity thromboplastin complex”.
Compounds 2, 15, 21, 37 according to the invention at a concentration of 15, 30 and 60 mg/kg were administered to the above experimental animals intravenously and their blood was taken off after 15, 30, 60 and 120 minutes after the administration.
Citrate blood containing 1 part of citrate per 9 parts of native blood was centrifuged at 3000 rev/min for 10 minutes to obtain plasma deprived of thrombocytes.
Added into a test tube in a water bath were 0.1 ml of plasma and 0.1 ml of a thromboplastin solution. After 60 seconds, 0.1 ml of 0.277% solution of calcium chloride was added and the time of reaction T1 in seconds was registered.

[2] = test system: plasma hemostasis; experiment: Autocoagulation test (coagulating activity A) after intravenous administration; assay type: in vivo, rabbit
Procedure: as §1, §2, §3
Compounds 2, 15, 21, 37 according to the invention at a concentration of 15, 30 and 60 mg/kg were intravenously administered to the above experimental animals and their blood samples were taken off 15, 30, 60 and 120 minutes after the administration.
Added to 0.2 ml of plasma obtained by centrifuging citrate blood at 1500 rev/min within 10 minutes was a glycosilate-calcium mixture (2.0 ml 0.222% CaCl2+0.1 ml of investigated citrate blood) 4, 6, 8, 10 minutes after the preparation of this mixture and the time of coagulation in the sample was determined.
The obtained results in seconds were translated in factors of coagulating activity A in percent, which specify the state of both the coagulating and anticoagulating parts of the blood coagulating system.

[3] = Chronic toxicity, rectal suppositories: indexes of peripheral blood; settings: male rats; for Basophiles / Juveniles: 1 month/2 months (one value given)
Procedure: The experiments were conducted on inbred rats. The experimental animals were selected in groups by a method of random sampling taking into account the body mass as a determining index; 24 males or 24 females for one preparation from compounds 2, 15, 23, 34, 37 investigated in one dose.
Two doses of preparations used in the experiments: 50 mg/kg and 500 mg/kg. Before the administration, the suppositories were softened by heating in a glass water bath at a temperature of 38-39° C., the soft mass was collected in tuberculin syringe in a volume of 1 ml, a needle with oliva was attached to the syringe, and the preparatory mass was introduced into the rectum of the animal for a depth of 1.5-2.0 cm. The animals of the control group were administered with sterile medical liquid paraffin in a volume corresponding to the volume of the investigated suppository. A complete course of administration of drugs to the animals was two months. A complex of laboratory diagnostic investigations was carried out one month after the beginning of the administration of the preparation to the animal—in a middle of the course (8 animals), two months after ending the course (8 animals) and three months after ending the recovery period of one month (8 animals). The mass of the body of the rats in the first month of administration of the preparation was determined weekly, and then once in two weeks. On the basis of the dynamics of an index of the mass of the animal body, the volume of preparation being administered was corrected taking into account the test dose.

[4] = suppositories 50 mg/kg, 1 month
[5] = suppositories 50 mg/kg, 2 months
[6] = suppositories 500 mg/kg, 1 month
[7] = suppositories 500 mg/kg, 2 months

In the case of `Nc1cnc2c(=O)n([C@@H]3O[C@H](CO)[C@@H](O)[C@H]3O)[nH]c(=O)c2n1.[Na]` [Compound 21, sodium salt of 3-amino-7-(β-D-ribofuranosile)pyrazine[2,3-d]-6H-pyridazine-5,8-dione], the “T, s After 120 minutes (prothrombin time)” value (“T, s After 120 minutes” below) ([1]; dose 15.0 mg/kg intravenously) is reported as 11.5 ± 0.2 s, the “T, s after 15 minutes (prothrombin time)” value ([1]; dose 15.0 mg/kg intravenously) is reported as 11.4 ± 0.2 s and the “T, s after 30 minutes (prothrombin time)” value ([1]; dose 15.0 mg/kg intravenously) is reported as 11.5 ± 0.1 s. For the same molecule, the “T, s after 60 minutes (prothrombin time)” value ([1]; dose 15.0 mg/kg intravenously) was 11.3 ± 0.1 s, the “T, s After 120 minutes” value ([1]; dose 30.0 mg/kg intravenously) was 11.2 ± 0.2 s and the “T, s after 15 minutes (prothrombin time)” value ([1]; dose 30.0 mg/kg intravenously) was 11.2 ± 0.1 s. The “T, s after 30 minutes (prothrombin time)” value ([1]; dose 30.0 mg/kg intravenously) was 11.2 ± 0.1 s, the “T, s after 60 minutes (prothrombin time)” value ([1]; dose 30.0 mg/kg intravenously) was 11.3 ± 0.2 s and the “T, s After 120 minutes” value ([1]; dose 60.0 mg/kg intravenously) was 12.0 ± 0.2 s. For the same molecule, the “T, s after 15 minutes (prothrombin time)” value ([1]; dose 60.0 mg/kg intravenously) was 12.0 ± 0.2 s, the “T, s after 30 minutes (prothrombin time)” value ([1]; dose 60.0 mg/kg intravenously) was 11.8 ± 0.1 s and the “T, s after 60 minutes (prothrombin time)” value ([1]; dose 60.0 mg/kg intravenously) was 12.1 ± 0.1 s. For the same molecule, the “effect on the prothrombin time index (overall)” value ([1]; doses of 15.0, 30.0, 60.0 mg/kg) was “have no effect on the prothrombin time index”, the “A, % after 15 minutes (coagulating activity)” value (“A, % after 15 minutes” below) ([2]; dose 15.0 mg/kg intravenously) was 81.4% and the “A, % after 30 minutes (coagulating activity)” value (shortened to “A, % after 30 minutes”) ([2]; dose 15.0 mg/kg intravenously) was 101.3%. The “A, % after 60 minutes (coagulating activity)” value (“A, % after 60 minutes” for short) ([2]; dose 15.0 mg/kg intravenously) was 86.5%, the “A, % after 120 minutes (coagulating activity)” value (“A, % after 120 minutes” below) ([2]; dose 15.0 mg/kg intravenously) was 97.4% and the “A, % after 15 minutes” value ([2]; dose 30.0 mg/kg intravenously) was 97.2%. The “A, % after 30 minutes” value ([2]; dose 30.0 mg/kg intravenously) was 69.1%, the “A, % after 60 minutes” value ([2]; dose 30.0 mg/kg intravenously) was 103.7% and the “A, % after 120 minutes” value ([2]; dose 30.0 mg/kg intravenously) was 71.0%. The “A, % after 15 minutes” value ([2]; dose 60.0 mg/kg intravenously) was 71.9%, the “A, % after 30 minutes” value ([2]; dose 60.0 mg/kg intravenously) was 62.1% and the “A, % after 60 minutes” value ([2]; dose 60.0 mg/kg intravenously) was 63.7%. The “A, % after 120 minutes” value ([2]; dose 60.0 mg/kg intravenously) was 66.2% and the “effect on the coagulation activity, autocoagulation test (overall)” value ([2]; doses 15.0, 30.0, 60.0 mg/kg) was “have no effect on the coagulation activity”.
For `O=c1[nH]n([C@@H]2O[C@H](CO)[C@@H](O)[C@H]2O)c(=O)c2nc(O)cnc12.[Na].[Na]` [Compound 23, disodium salt of 2-hydroxy-7-(β-D-ribofuranosile)pyrazine[2,3-Cl]-6H-pyridazine-5,8-dione], the “Average volume of erythrocytes” value [3, 4] was 82.7 ± 1.6 Mkm^3, the “Coagulation, time” value [3, 4] was 150 ± 15 s and the Eosinophiles [3, 4] was 3.6 ± 0.5%. The Erythrocytes [3, 4] was 5.7 ± 0.1 mln/mm^3, the Haematocrite [3, 4] was 47.7 ± 1.2% and the Hemoglobin [3, 4] was 10.7 ± 0.1 mmol/L. The Leukocyte [3, 4] was 15.5 ± 1.1 thousand/mm^3, the REE [3, 4] was 1.7 ± 0.8 mm/h and the Reticulocytes [3, 4] was 2.7 ± 0.3%. The Stab neutrophil [3, 4] was 1.1 ± 0.5%, the Thrombocytes [3, 4] was 659 ± 18 and the Basophiles ([3]; suppositories 50 mg/kg) was 0%. The Juveniles ([3]; suppositories 50 mg/kg) was 0%, the “Average volume of erythrocytes” value [3, 5] was 77.5 ± 1.7 Mkm^3 and the “Coagulation, time” value [3, 5] was 313 ± 17 s. It also gave an Eosinophiles [3, 5] of 4.0 ± 0.7%, an Erythrocytes [3, 5] of 6.0 ± 0.2 mln/mm^3 and a Haematocrite [3, 5] of 46.5 ± 1.3%. The Hemoglobin [3, 5] was 11.0 ± 0.1 mmol/L, the Leukocyte [3, 5] was 17.6 ± 1.2 thousand/mm^3 and the REE [3, 5] was 1.5 ± 0.1 mm/h. For the same molecule, the Reticulocytes [3, 5] was 2.8 ± 0.1%, the Stab neutrophil [3, 5] was 1.6 ± 0.2% and the Thrombocytes [3, 5] was 586 ± 28. For the same molecule, the “Average volume of erythrocytes” value [3, 6] was 83.5 ± 1.7 Mkm^3, the “Coagulation, time” value [3, 6] was 156 ± 11 s and the Eosinophiles [3, 6] was 3.3 ± 0.7%. It also gave an Erythrocytes [3, 6] of 5.7 ± 0.2 mln/mm^3, a Haematocrite [3, 6] of 47.9 ± 1.1% and a Hemoglobin [3, 6] of 10.7 ± 0.2 mmol/L. The Leukocyte [3, 6] was 16.4 ± 1.1 thousand/mm^3, the REE [3, 6] was 2.0 ± 0.3 mm/h and the Reticulocytes [3, 6] was 3.1 ± 0.1%. It also gave a Stab neutrophil [3, 6] of 1.0 ± 0.3%, a Thrombocytes [3, 6] of 678 ± 18 and a Basophiles ([3]; suppositories 500 mg/kg) of 0%. For the same molecule, the Juveniles ([3]; suppositories 500 mg/kg) was 0%, the “Average volume of erythrocytes” value [3, 7] was 82.1 ± 1.4 Mkm^3 and the “Coagulation, time” value [3, 7] was 3171 ± 12 s. For the same molecule, the Eosinophiles [3, 7] was 3.8 ± 1.3%, the Erythrocytes [3, 7] was 6.4 ± 0.2 mln/mm^3 and the Haematocrite [3, 7] was 49.4 ± 1.9%. For the same molecule, the Hemoglobin [3, 7] was 12.3 ± 0.3 mmol/L, the Leukocyte [3, 7] was 20.1 ± 1.7 thousand/mm^3 and the REE [3, 7] was 1.7 ± 0.3 mm/h. For the same molecule, the Reticulocytes [3, 7] was 3.4 ± 0.1%, the Stab neutrophil [3, 7] was 1.6 ± 0.2% and the Thrombocytes [3, 7] was 628 ± 23.
